We go through three compounds from PMC8347148, “An Evaluation of Human Induced Pluripotent Stem Cells to Test for Cardiac Developmental Toxicity” (International Journal of Molecular Sciences, 2021).

Molecules are shown by their SMILES. Converted amounts (≈) assume the structure as drawn. Like-named read-outs stand apart in the source and are kept apart here. Some results are limits rather than exact numbers.

In series [1] the test system is differentiating hiPSCs (hiPSC-cardiomyocytes). In words: hiPSC-EST cardiac viability assay (MTT). The class given is cell-based, human. Conditions: for IC50: Homo sapiens, 600 h. As for the experimental part:
(§1) 5-flurorouracil (5-FU), all-trans retinoic acid (atRA), and penicillin G (PenG) were selected from a subset of chemicals used in the original EST validation study. 5-FU and atRA were selected as positive test compounds due to their established embryotoxic potential while PenG was used as a negative control. All chemicals were purchased from Sigma. Stock solutions were prepared in DMSO and filtered through a 0.2 micron Acrodisc® PSF Syringe Filter (Pall Corporation, Port Washington, NY, USA), aliquoted into sterile microcentrifuge tubes and stored at −20 °C until use. Test chemicals were serially diluted to final concentrations in differentiation media. Cardiogenic cultures were treated with designated chemicals (or solvent only) through day 25 of differentiation and hFF cultures were treated with each compound for a 25 day duration period. Compounds were replenished with each medium change.
A University of Kentucky smoking machine was used to produce smoke extract solutions from commercially available conventional Marlboro Red 100 brand cigarettes as previously described. The smoking machine took a 2.2 s puff of mainstream (MS) smoke every minute. Smoke solution concentrations were made in puff equivalents (PE), which are the number of cigarette puffs dissolved in 1 mL of medium. MS smoke solutions were produced by pulling 30 puffs of MS smoke through 10 mL of DMEM. Resulting 3 PE smoke extracts were filtered through a 0.2 micron Acrodisc® PSF Syringe Filter (Pall Corporation, Port Washington, NY, USA), aliquoted into sterile microcentrifuge tubes, and stored at −80 °C until use. Serial dilutions were performed in differentiation medium to reach desired final exposure concentrations. Cardiogenic cultures were treated with smoke solutions through 25 days of differentiation. Smoke solutions were replenished with each medium change.
A 10% (w/v) Camel Snus extract was prepared as previously described. Ten grams of Snus was added to 85 mL of DMEM and allowed to incubate at 37 °C for 2 h. This initial extract solution was centrifuged for 10 min at 4500× g. Supernatant from the first round of centrifugation was then centrifuged again at 13,000× g for 1 h. The resulting supernatant was collected and pH adjusted to 7.4. 15 mL of FBS was added to the pH-adjusted Snus extract to produce a 10% stock solution of Snus tobacco extract (STE). The stock solution was then sterile-filtered with a 0.22 μm vacuum filter system. STE was aliquoted into sterile microcentrifuge tubes and stored at −80 °C until use. Serial dilutions were performed in differentiation medium to reach desired final exposure concentrations. Cardiogenic cultures were treated with STE through 25 days of differentiation. STE was replenished with each medium change.
(§2) Cardiomyocyte survival following concurrent exposure to each compound was evaluated by 3-[4,5-dimethylthiazol-2-yl]-2,5-diphenylterazolium bromide (MTT) assay from three independent differentiations each carried out in technical quintuplicate as previously described. On day 25 of differentiation, cells were incubated with MTT (5 mg/mL) for 2 h at 37 °C. MTT supernatant was removed and replaced with a desorb solution of 0.7% SDS in 2-propanol. The absorbance of the solution was measured at 570 nm in an iMark™ microplate reader (Bio-Rad) with 655 nm as a reference wavelength. Here, mitochondrial dehydrogenase activity on the MTT in solution is directly proportional to a blue-purple product that is detected at 570 nm.
(§3) Half-maximal inhibitory compound doses of differentiation (ID50) and cytotoxicity (IC50) were determined from concentration-response curves using GraphPad Prism.

Series [2] deals with human foreskin fibroblasts (hFF). The experiment in a line: hFF viability screen (MTT). The format is cell-based. Conditions: for IC50: Homo sapiens, Fibroblast; for concentrations with reductions in hFF cell viability: Figure 4B. As for the experimental part:
Human foreskin fibroblasts (hFF) were gifted from Dr. Derrick Rancourt (University of Calgary). hFFs were seeded onto 0.1% gelatin-coated tissue culture plates and maintained in Dulbecco’s modification of Eagle’s medium (DMEM with 4.5 g/L glucose, L-glutamine and sodium pyruvate; Corning cellgro) supplemented with 10% FBS (Atlanta Biologicals, Flower Branch, GA, USA) and 0.5% penicillin/streptomycin (10,000 units/10,000 units, Gibco).
as §1, §2, §3

The test system of the next series is TBX5 mRNA expression. The experiment in a line: day 10 qPCR of TBX5 in differentiating hiPSCs. The class given is cell-based, human. Conditions: for hiPSCs (d10 TBX5) ID50: day 10, 50% reduction in TBX5 gene expression vs control.
Text: One of the main critiques of traditional developmental toxicity evaluations is the length of time and technical training required to successfully complete assays. As such, a shorter, quantifiable, and correct in vitro embryotoxicity assessment could improve throughput without sacrificing accuracy. Given the correct predictions achieved with contraction counts described above, we next investigated if our approach could be modified with a shorter, qPCR-based endpoint to determine differentiation inhibition. Here, we selected two cardiogenesis-specific transcription factors, TBX5 and MEF2c, to determine if the adverse differentiation outcomes would already be detectable as changes in TBX5 and MEF2c expression on day 10 of differentiation.
RNA was extracted from three wells per biological replicate using the protocol from NucleoSpin RNA II kit (Macherey-Nagel, Mountain View, CA, USA) and pooled. RNA from three independent differentiations was then quantified using a NanoDrop® 1000 spectrophotometer (ThermoFisher Scientific, Grand Island, NY, USA) at 260 nm. 25 ng of total RNA was used as a template for cDNA synthesis with a mastermix including 5 µL 5× reaction buffer, 1.25 µL 10 mM dNTPs, 1.25 µL 400 U/µL RNase inhibitor, 0.1 µL 200 U/µL reverse transcriptase, 0.1 µL 3 µg/µL random primer, and 1.5 µL DEPC H2O for a total of 25 µL per reaction. 25 ng cDNA transcripts were used for quantitative polymerase chain reaction (qPCR) SYBR green technology on the MyiQ cycler (Bio-Rad). The reactions were setup for 10 min of denaturing at 94 °C (initial), followed by 40 cycles of denaturing at 94 °C, and annealing at 60 °C each 45 s. The n-fold expression in target samples was calculated with the ΔΔCT method by standardizing Ct values to GAPDH expression. Primer sequences for human GAPDH were 5′-[…]-3′ and 5′-[…]-3′. Target genes were cardiogenic markers TBX5 and MEF2c. Primer sequences for human TBX5 were 5′-[…]-3′ and 5′-[…]-3′ and primer sequences for human MEF2c were 5′-[…]-3′ and 5′-[…]-3′ [27].
as §3

Series [3] has as its system mESCs. Set-up: method as in PMID 14761682. Conditions: mESC-EST, inhibition of differentiation; previously obtained in the authors' lab; cited from earlier work.
Series [4] has as its system mESCs. Set-up: method as in PMID 14761682. Conditions: mESC-EST, cell viability; previously obtained in the authors' lab; cited from earlier work.
Another series relates to 3T3 fibroblast cells. Details: method as in PMID 14761682. Conditions: mESC-EST, 3T3 viability; previously obtained in the authors' lab; cited from earlier work.
Where [5] appears, read: read-out: hiPSC IC50, day 25, MTT, 50% inhibition of viable cells vs control.
The mark [6] stands for this setting: day 25, MTT, 50% inhibition of viable cells vs control.
Setting [7] is: 600 h, MTT, 25 day treatment, read-out: hFF IC50.
Setting [8] is: fibroblast row of the hiPSC-EST in Table 1 (values equal hFF IC50 of Table 2), read-out: hiPSC 3T3 IC50.

Take `O=c1[nH]cc(F)c(=O)[nH]1` [5-Fluorouracil, 5-fluorouracil]: the results for the IC50 in series [1] (setting [5]), in series [2] (setting [7]) and in series [2] (setting [8]) were 4.7e-05 µg/mL (≈ 0.000361 µM), 0.000808 µg/mL (≈ 0.00621 µM) and 0.00081 µg/mL (≈ 0.00623 µM), respectively. Further, in series [1] (MTT, Figure 4A), the “concentrations with reductions in hiPSC cell viability” value is listed as “above 1 × 10^−6 μg/mL”. The “hiPSC IC50” value in series [1] (setting [6]) amounted to 4.726e-05 µg/mL. In series [2], the “effect on hFF cell viability” value is on record as “dose-dependent reduction in cell viability”. The “concentrations with reductions in hFF cell viability” value in series [2] (MTT) was more than 0.1 ng/mL. Also, the “concentrations with dramatically reduced d10 TBX5 mRNA expression” value in the series with TBX5 mRNA expression (day 10) is “above 1 × 10^−4 μg/mL”. In addition, in the series with TBX5 mRNA expression, the “hiPSCs (d10 TBX5) ID50” value came to 0.000179 µg/mL. Also, the “mESCs ID50” value in the series on mESCs [3] was 0.0097 µg/mL. Besides, the “mESCs IC50” value with mESCs [4] was 22 ng/mL. Moreover, the “mESCs 3T3 IC50” value in the series on 3T3 fibroblast cells was 0.05 µg/mL.
`CC1(C)S[C@@H]2[C@H](NC(=O)Cc3ccccc3)C(=O)N2[C@H]1C(=O)O` [Penicillin G, penicillin G]: the IC50 (commonly the concentration at which inhibition is half-maximal) was less than 1000 µg/mL in series [1] (setting [5]), approximately 1430 µg/mL (≈ 4290 µM) in series [2] (setting [7]) and 1430 µg/mL (≈ 4290 µM) in series [2] (setting [8]). Also, the “hiPSC IC50” value in series [1] (setting [6]) is more than 1000 µg/mL. Also, in series [1] (tested concentration range), the “effect on hiPSC cell viability” value is reported as “did not find any reduced cell survival”. Besides, the “concentrations with reductions in hFF cell viability” value in series [2] (MTT) was not below 800000 ng/mL. Further, in the series with TBX5 mRNA expression (day 10), the “effect on TBX5 mRNA expression” value is listed as “did not significantly impact TBX5 mRNA expression”. Also, the “hiPSCs (d10 TBX5) ID50” value in the series on TBX5 mRNA expression was more than 1000 µg/mL. Also, the “mESCs ID50” value in the series on mESCs [3] is 750 µg/mL. For the same compound, the “mESCs IC50” value with mESCs [4] was 800000 ng/mL. For the same compound, the “mESCs 3T3 IC50” value in the series on 3T3 fibroblast cells was 1000 µg/mL.
In the case of `CC1=C(/C=C/C(C)=C/C=C/C(C)=C/C(=O)O)C(C)(C)CCC1` [All-Trans Retinoic Acid, all-trans retinoic acid], the IC50 turned out to be 3.64 µg/mL (≈ 12.1 µM) in series [1] (day 25, MTT, 50% inhibition of viable cells vs control, read-out: hiPSC IC50); 0.0125 µg/mL (≈ 0.0415 µM) in series [2] (setting [7]); 0.0125 µg/mL (≈ 0.0416 µM) in series [2] (setting [8]). In addition, the “effect on hFF cell viability” value in series [2] was “dose-dependent reduction in cell viability”. In addition, in series [2] (MTT, 25 day treatment), the “hFF IC50” value came out at 0.0125 µg/mL. For the same compound, the “concentrations with reductions in hFF cell viability” value in series [2] (MTT) was more than 10 ng/mL. Besides, the “concentration with significant cell death in hFF” value in series [2] (highest tested concentration) came out at 1000 ng/mL. For the same compound, the “concentrations with significant upregulation in TBX5 mRNA expression” value with TBX5 mRNA expression (day 10) is on record as “lower than 1 × 10^−6 μg/mL”. Further, the “hiPSCs (d10 TBX5) ID50” value in the series on TBX5 mRNA expression worked out at 3.28e-06 µg/mL. For the same compound, in the series on mESCs [3], the “mESCs ID50” value was 0.0017 µg/mL. The “mESCs IC50” value in the series with mESCs [4] was 0.09 ng/mL. In addition, the “mESCs 3T3 IC50” value in the series with 3T3 fibroblast cells is 2.7 µg/mL.
